The NIST ThermoML archive (doi:10.1021/je7003929)

Test: xn = mol fraction of the nth substance listed
Details: Liquid, Vibrating tube method

c1ccc2sccc2c1 [benzo[b]thiophene] + CCCCCC
Details	mass density [kg/m3]
322.95 K, 1028 kPa, x2 = 0.0629	1103.4
322.95 K, 2021 kPa, x2 = 0.0629	1104.1
322.95 K, 3029 kPa, x2 = 0.0629	1104.7
322.95 K, 4021 kPa, x2 = 0.0629	1105.4
322.95 K, 5037 kPa, x2 = 0.0629	1106.1
322.95 K, 6021 kPa, x2 = 0.0629	1106.7
322.95 K, 7021 kPa, x2 = 0.0629	1107.4
322.95 K, 8029 kPa, x2 = 0.0629	1108.1
322.95 K, 9018 kPa, x2 = 0.0629	1108.7
322.95 K, 10003 kPa, x2 = 0.0629	1109.3
322.95 K, 10998 kPa, x2 = 0.0629	1109.9
322.95 K, 12016 kPa, x2 = 0.0629	1110.6
322.95 K, 13012 kPa, x2 = 0.0629	1111.2
322.95 K, 14019 kPa, x2 = 0.0629	1111.8
322.95 K, 15018 kPa, x2 = 0.0629	1112.5
322.95 K, 16018 kPa, x2 = 0.0629	1113.1
322.95 K, 17024 kPa, x2 = 0.0629	1113.7
322.95 K, 18018 kPa, x2 = 0.0629	1114.4
322.95 K, 19024 kPa, x2 = 0.0629	1115
322.95 K, 20012 kPa, x2 = 0.0629	1115.6
323.02 K, 1017 kPa, x2 = 0.7491	752.7
323.02 K, 2013 kPa, x2 = 0.7491	753.8
323.02 K, 3014 kPa, x2 = 0.7491	754.9
323.02 K, 4012 kPa, x2 = 0.7491	756
323.02 K, 5008 kPa, x2 = 0.7491	757.1
323.02 K, 6010 kPa, x2 = 0.7491	758.1
323.02 K, 7025 kPa, x2 = 0.7491	759.2
323.02 K, 8028 kPa, x2 = 0.7491	760.2
323.02 K, 9009 kPa, x2 = 0.7491	761.2
323.02 K, 10010 kPa, x2 = 0.7491	762.2
323.02 K, 11002 kPa, x2 = 0.7491	763.2
323.02 K, 12017 kPa, x2 = 0.7491	764.1
323.02 K, 13019 kPa, x2 = 0.7491	765.1
323.02 K, 14006 kPa, x2 = 0.7491	766
323.02 K, 15015 kPa, x2 = 0.7491	767
323.02 K, 16022 kPa, x2 = 0.7491	767.9
323.02 K, 17019 kPa, x2 = 0.7491	768.8
323.02 K, 18016 kPa, x2 = 0.7491	769.8
323.02 K, 19024 kPa, x2 = 0.7491	770.6
323.02 K, 20021 kPa, x2 = 0.7491	771.5
323.09 K, 1017 kPa, x2 = 0.9432	659.3
323.09 K, 2024 kPa, x2 = 0.9432	660.6
323.09 K, 3024 kPa, x2 = 0.9432	661.9
323.09 K, 4016 kPa, x2 = 0.9432	663.1
323.09 K, 5024 kPa, x2 = 0.9432	664.2
323.09 K, 6021 kPa, x2 = 0.9432	665.5
323.09 K, 7018 kPa, x2 = 0.9432	666.6
323.09 K, 8020 kPa, x2 = 0.9432	667.8
323.09 K, 9019 kPa, x2 = 0.9432	668.9
323.09 K, 10010 kPa, x2 = 0.9432	670
323.09 K, 11012 kPa, x2 = 0.9432	671.1
323.09 K, 12013 kPa, x2 = 0.9432	672.2
323.09 K, 13021 kPa, x2 = 0.9432	673.3
323.09 K, 14023 kPa, x2 = 0.9432	674.3
323.09 K, 15015 kPa, x2 = 0.9432	675.3
323.09 K, 16001 kPa, x2 = 0.9432	676.3
323.09 K, 17028 kPa, x2 = 0.9432	677.3
323.09 K, 18003 kPa, x2 = 0.9432	678.3
323.09 K, 19001 kPa, x2 = 0.9432	679.3
323.09 K, 20017 kPa, x2 = 0.9432	680.3
332.66 K, 1020 kPa, x2 = 0.2588	991.1
332.66 K, 2021 kPa, x2 = 0.2588	991.9
332.66 K, 3022 kPa, x2 = 0.2588	992.7
332.66 K, 4018 kPa, x2 = 0.2588	993.5
332.66 K, 5021 kPa, x2 = 0.2588	994.3
332.66 K, 6012 kPa, x2 = 0.2588	995
332.66 K, 7018 kPa, x2 = 0.2588	995.8
332.66 K, 8005 kPa, x2 = 0.2588	996.6
332.66 K, 9012 kPa, x2 = 0.2588	997.3
332.66 K, 10011 kPa, x2 = 0.2588	998.2
332.66 K, 11013 kPa, x2 = 0.2588	998.9
332.66 K, 12006 kPa, x2 = 0.2588	999.7
332.66 K, 13011 kPa, x2 = 0.2588	1000.4
332.66 K, 14000 kPa, x2 = 0.2588	1001.2
332.66 K, 15025 kPa, x2 = 0.2588	1002
332.66 K, 16005 kPa, x2 = 0.2588	1002.6
332.66 K, 17000 kPa, x2 = 0.2588	1003.3
332.66 K, 18002 kPa, x2 = 0.2588	1004.1
332.66 K, 19009 kPa, x2 = 0.2588	1004.8
332.66 K, 20016 kPa, x2 = 0.2588	1005.5
332.77 K, 1019 kPa, x2 = 0.0629	1094.5
332.77 K, 2029 kPa, x2 = 0.0629	1095.3
332.77 K, 3030 kPa, x2 = 0.0629	1096
332.77 K, 4019 kPa, x2 = 0.0629	1096.7
332.77 K, 5026 kPa, x2 = 0.0629	1097.4
332.77 K, 6037 kPa, x2 = 0.0629	1098.1
332.77 K, 7035 kPa, x2 = 0.0629	1098.8
332.77 K, 8021 kPa, x2 = 0.0629	1099.5
332.77 K, 9012 kPa, x2 = 0.0629	1100.1
332.77 K, 10008 kPa, x2 = 0.0629	1100.8
332.77 K, 11026 kPa, x2 = 0.0629	1101.5
332.77 K, 12020 kPa, x2 = 0.0629	1102.2
332.77 K, 13012 kPa, x2 = 0.0629	1102.8
332.77 K, 14016 kPa, x2 = 0.0629	1103.4
332.77 K, 15015 kPa, x2 = 0.0629	1104.2
332.77 K, 16015 kPa, x2 = 0.0629	1104.7
332.77 K, 17020 kPa, x2 = 0.0629	1105.4
332.77 K, 18020 kPa, x2 = 0.0629	1106.1
332.77 K, 19022 kPa, x2 = 0.0629	1106.7
332.77 K, 20017 kPa, x2 = 0.0629	1107.3
332.82 K, 1026 kPa, x2 = 0.9432	650.1
332.82 K, 2016 kPa, x2 = 0.9432	651.4
332.82 K, 3016 kPa, x2 = 0.9432	652.8
332.82 K, 4023 kPa, x2 = 0.9432	654.1
332.82 K, 5004 kPa, x2 = 0.9432	655.4
332.82 K, 6016 kPa, x2 = 0.9432	656.7
332.82 K, 7012 kPa, x2 = 0.9432	658
332.82 K, 8018 kPa, x2 = 0.9432	659.2
332.82 K, 9014 kPa, x2 = 0.9432	660.5
332.82 K, 10014 kPa, x2 = 0.9432	661.6
332.82 K, 11009 kPa, x2 = 0.9432	662.8
332.82 K, 12005 kPa, x2 = 0.9432	664
332.82 K, 13020 kPa, x2 = 0.9432	665.1
332.82 K, 14007 kPa, x2 = 0.9432	666.3
332.82 K, 15005 kPa, x2 = 0.9432	667.3
332.82 K, 16012 kPa, x2 = 0.9432	668.4
332.82 K, 17015 kPa, x2 = 0.9432	669.5
332.82 K, 18010 kPa, x2 = 0.9432	670.6
332.82 K, 19000 kPa, x2 = 0.9432	671.6
332.82 K, 20001 kPa, x2 = 0.9432	672.6
332.86 K, 1031 kPa, x2 = 0.7491	743.7
332.86 K, 2024 kPa, x2 = 0.7491	744.9
332.86 K, 3019 kPa, x2 = 0.7491	746.1
332.86 K, 4001 kPa, x2 = 0.7491	747.2
332.86 K, 5002 kPa, x2 = 0.7491	748.4
332.86 K, 6020 kPa, x2 = 0.7491	749.5
332.86 K, 7005 kPa, x2 = 0.7491	750.6
332.86 K, 8013 kPa, x2 = 0.7491	751.7
332.86 K, 9004 kPa, x2 = 0.7491	752.8
332.86 K, 10000 kPa, x2 = 0.7491	753.8
332.86 K, 11019 kPa, x2 = 0.7491	754.9
332.86 K, 12006 kPa, x2 = 0.7491	755.9
332.86 K, 13014 kPa, x2 = 0.7491	757
332.86 K, 14008 kPa, x2 = 0.7491	757.9
332.86 K, 15007 kPa, x2 = 0.7491	758.9
332.86 K, 16009 kPa, x2 = 0.7491	759.9
332.86 K, 17002 kPa, x2 = 0.7491	760.9
332.86 K, 18026 kPa, x2 = 0.7491	761.8
332.86 K, 19007 kPa, x2 = 0.7491	762.8
332.86 K, 20017 kPa, x2 = 0.7491	763.7
